# Reference: patent publication US20160242416A1, “FUNGICIDAL ISOXAZOLINE CARBINOLS” (E I DU PONT DE NEMOURS AND COMPANY, priority 2015, published 2016)
# Key:
# Stagonospora nodorum = assay: Test D: wheat glume blotch, preventive spray on wheat seedlings; settings: 100 = 100% disease control; for Test D rating (% disease control): 10 ppm, wheat glume blotch, 0 = no control; for Test D disease control rating: 10 ppm test solution, 0 = no control relative to controls
# [1] = tested on: Puccinia recondita f sp. tritici; assay: Test F: wheat leaf rust, preventive spray on wheat seedlings; settings: 100 = 100% disease control; for Test F rating (% disease control): 10 ppm, wheat leaf rust, 0 = no control; for Test F disease control rating: 10 ppm test solution, 0 = no control relative to controls
# Botrytis cinerea = assay: Test B: gray mold, preventive spray on tomato seedlings; settings: 100 = 100% disease control; for Test B rating (% disease control): 10 ppm, gray mold on tomato, 0 = no control; for Test B disease control rating: 10 ppm test solution, 0 = no control relative to controls
# [2] = tested on: Erysiphe graminis f sp. tritici; assay: Test G: wheat powdery mildew, preventive spray on wheat seedlings; settings: 100 = 100% disease control; for Test G rating (% disease control): 10 ppm, wheat powdery mildew, 0 = no control; for Test G disease control rating: 10 ppm test solution, 0 = no control relative to controls
# Zymoseptoria tritici = assay: Test E: wheat leaf blotch, preventive spray on wheat seedlings; settings: 100 = 100% disease control; for Test E rating (% disease control): 10 ppm, wheat leaf blotch, 0 = no control; for Test E disease control rating: 10 ppm test solution, 0 = no control relative to controls
SMILES,Test D rating (% disease control) (Stagonospora nodorum) [%],Test F rating (% disease control) [1] [%],Test B rating (% disease control) (Botrytis cinerea) [%],Test G rating (% disease control) [2] [%],Test E rating (% disease control) (Zymoseptoria tritici) [%],Test D disease control rating (Stagonospora nodorum) [%],Test F disease control rating [1] [%],Test B disease control rating (Botrytis cinerea) [%],Test G disease control rating [2] [%],Test E disease control rating (Zymoseptoria tritici) [%]
"OC(Cn1cncn1)(C1=NOC(Cc2ccc(F)cc2)C1)c1ccc(Cl)cc1 (single isomer, unassigned) [Compound 200]",11,99,0,99,16,,,,,
"OC(Cn1cncn1)(C1=NOC(Cc2ccc(Cl)cc2)C1)c1ccc(Cl)cc1 (single isomer, unassigned) [Compound 201]",50,100,0,96,1,,,,,
"OC(Cn1cncn1)(C1=NOC(Cc2ccc(C(F)(F)F)cc2)C1)c1ccc(Cl)cc1 (single isomer, unassigned) [Compound 202]",59,100,0,99,21,,,,,
"OC(Cn1cncn1)(C1=NOC(Cc2ccc(C(F)(F)F)cc2)C1)c1ccc(Cl)cc1 (single isomer, unassigned) [Compound 203]",55,100,0,99,16,,,,,
"CC(C)(C)CC(O)(Cn1cncn1)C1=NOC(Cc2ccc(Cl)cc2)C1 (single isomer, unassigned) [Compound 206]",86,100,9,99,13,,,,,
"CC(C)(C)CC(O)(Cn1cncn1)C1=NOC(Cc2ccc(Cl)cc2)C1 (single isomer, unassigned) [Compound 207]",99,100,0,100,44,,,,,
"CC(C)(C)CC(O)(Cn1cncn1)C1=NOC(Cc2ccc(C(F)(F)F)cc2)C1 (single isomer, unassigned) [Compound 226]",,,,,,51,100,0,99,0
"CC(C)(C)CC(O)(Cn1cncn1)C1=NOC(Cc2ccc(C(F)(F)F)cc2)C1 (single isomer, unassigned) [Compound 227]",,,,,,73,100,0,100,29
"CC(C)(C)C(O)(Cn1cncn1)C1=NOC(COc2cccc(Cl)c2)C1 (single isomer, unassigned) [Compound 230]",,,,,,100,100,99,99,8
"CC(C)(C)C(O)(Cn1cncn1)C1=NOC(COc2cccc(Cl)c2)C1 (single isomer, unassigned) [Compound 231]",,,,,,100,100,80,99,6
"CC(C)(C)C(O)(Cn1cncn1)C1=NOC(COc2cccc(Br)c2)C1 (single isomer, unassigned) [Compound 232]",,,,,,99,100,98,100,41
"CC(C)(C)C(O)(Cn1cncn1)C1=NOC(COc2cccc(Br)c2)C1 (single isomer, unassigned) [Compound 233]",,,,,,100,100,40,99,0
